“And” between values parts separate entries of the source, which are not always exact repeats. Identical values can stand only once.
How the values were obtained:
[1] = biological target: T1, Peregrin (Homo sapiens) (UniProt P55201); details: Compound concentration 20.0 uM, Protein concentration 2.0 uM, Result type QC Liability
T1 sequence (whole entry): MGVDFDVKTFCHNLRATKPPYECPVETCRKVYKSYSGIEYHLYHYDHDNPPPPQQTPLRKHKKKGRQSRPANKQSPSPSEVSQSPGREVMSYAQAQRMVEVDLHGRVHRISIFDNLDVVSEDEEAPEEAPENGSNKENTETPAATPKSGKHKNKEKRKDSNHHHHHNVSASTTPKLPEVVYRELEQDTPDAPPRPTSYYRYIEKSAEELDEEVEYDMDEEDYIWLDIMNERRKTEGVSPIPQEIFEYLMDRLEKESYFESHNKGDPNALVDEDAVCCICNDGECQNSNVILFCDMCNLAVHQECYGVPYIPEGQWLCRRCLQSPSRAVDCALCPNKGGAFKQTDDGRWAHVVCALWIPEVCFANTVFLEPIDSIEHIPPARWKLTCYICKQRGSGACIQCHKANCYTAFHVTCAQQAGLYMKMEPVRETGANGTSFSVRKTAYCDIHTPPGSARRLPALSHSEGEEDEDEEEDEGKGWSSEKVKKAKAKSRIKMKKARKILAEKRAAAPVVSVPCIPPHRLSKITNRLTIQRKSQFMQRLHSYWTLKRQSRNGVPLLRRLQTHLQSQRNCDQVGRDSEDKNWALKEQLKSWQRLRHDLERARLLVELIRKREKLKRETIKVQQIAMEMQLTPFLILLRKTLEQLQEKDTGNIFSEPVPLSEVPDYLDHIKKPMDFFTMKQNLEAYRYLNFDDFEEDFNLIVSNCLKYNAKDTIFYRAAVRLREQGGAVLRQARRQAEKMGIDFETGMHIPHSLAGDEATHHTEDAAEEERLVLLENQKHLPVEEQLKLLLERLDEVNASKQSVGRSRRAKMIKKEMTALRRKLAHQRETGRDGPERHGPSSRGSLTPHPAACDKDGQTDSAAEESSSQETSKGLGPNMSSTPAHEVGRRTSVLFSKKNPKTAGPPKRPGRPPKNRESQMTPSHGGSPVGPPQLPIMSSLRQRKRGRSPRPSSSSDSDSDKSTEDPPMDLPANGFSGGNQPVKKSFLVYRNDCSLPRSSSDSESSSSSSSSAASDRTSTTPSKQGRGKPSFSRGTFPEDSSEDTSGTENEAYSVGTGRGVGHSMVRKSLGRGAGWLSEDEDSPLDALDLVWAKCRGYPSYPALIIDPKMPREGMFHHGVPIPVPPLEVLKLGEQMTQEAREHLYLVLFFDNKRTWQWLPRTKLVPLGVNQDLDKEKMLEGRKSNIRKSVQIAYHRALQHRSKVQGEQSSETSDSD

[2] = biological target: Fibroblast growth factor receptor 3 (Homo sapiens) (UniProt P22607); details: Compound concentration 20.0 uM, Protein concentration 2.0 uM, Result type QC Liability
Chain of Fibroblast growth factor receptor 3 (Homo sapiens) (P22607 23-806 limits assumed): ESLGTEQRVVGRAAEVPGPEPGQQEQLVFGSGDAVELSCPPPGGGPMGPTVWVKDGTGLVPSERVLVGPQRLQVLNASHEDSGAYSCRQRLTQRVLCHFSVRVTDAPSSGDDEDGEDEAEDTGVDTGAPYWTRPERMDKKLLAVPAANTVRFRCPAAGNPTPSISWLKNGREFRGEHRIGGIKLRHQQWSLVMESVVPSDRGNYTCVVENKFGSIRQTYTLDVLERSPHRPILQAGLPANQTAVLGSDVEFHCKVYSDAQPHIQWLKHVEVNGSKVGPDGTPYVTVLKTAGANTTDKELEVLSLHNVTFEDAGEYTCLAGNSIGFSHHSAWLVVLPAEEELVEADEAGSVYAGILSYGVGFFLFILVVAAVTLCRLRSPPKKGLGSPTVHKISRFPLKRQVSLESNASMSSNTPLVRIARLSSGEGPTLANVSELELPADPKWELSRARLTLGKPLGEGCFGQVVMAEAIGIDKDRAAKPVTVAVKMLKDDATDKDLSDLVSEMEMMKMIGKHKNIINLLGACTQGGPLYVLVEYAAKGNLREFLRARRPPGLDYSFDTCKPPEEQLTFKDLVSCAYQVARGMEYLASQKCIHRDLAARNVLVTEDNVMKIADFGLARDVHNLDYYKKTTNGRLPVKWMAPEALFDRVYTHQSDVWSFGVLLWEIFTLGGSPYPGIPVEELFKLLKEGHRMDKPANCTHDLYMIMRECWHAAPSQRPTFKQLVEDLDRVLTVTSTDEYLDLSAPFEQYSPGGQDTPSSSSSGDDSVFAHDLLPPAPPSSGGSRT
Description: Thermal Shift Assay. Domain: start/stop: P449-E759

Structure (SMILES)	ΔTm [1]	ΔTm [2]
CC[C@H](NC(=O)[C@H](C)NC)C(=O)N1C[C@@H](O)C[C@H]1Cc1c(-c2[nH]c3cc(F)ccc3c2C[C@@H]2C[C@H](O)CN2C(=O)[C@H](CC)NC(=O)[C@H](C)NC)[nH]c2cc(F)ccc12	-1.75 °C	0.75 °C
CC/C(=C(\c1ccccc1)c1ccc(OCCN(C)C)cc1)c1ccccc1	-3.71 °C	0.3 °C
Nc1ncc2c(n1)-c1c([nH]c3ccc(C4CC4)cc13)CCCC2	-1.74 °C	0.81 °C
CCc1ccc(N(CC(C)C)S(=O)(=O)c2ccc(OCC3CCOCC3)c(CO)c2)cc1	-0.2 °C	0.5 °C
c1ccc2c(-c3coc4cc(-c5ccc(N6CCNCC6)cc5)cnc34)ccnc2c1	-2.26 °C	1.12 °C
C=C[C@@]12CCc3cc(O)ccc3[C@H]1CC[C@@]1(C)[C@H]2CC[C@@H]1O	-6.72 °C	0.31 °C
Cc1nc(-c2ccc(C(F)(F)F)cc2)sc1C(=O)NCc1ccc(OC(C)(C)C(=O)O)cc1	-1.41 °C	0.71 °C
Nc1nccc(-c2c(-c3ccc(F)cc3)ncn2C2CCN(Cc3ccon3)CC2)n1	-1.77 °C	0.95 °C
CCCCc1c(-c2ccccc2)nc(N)nc1-c1ccc(OCc2ccccc2)c(F)c1F	-4.97 °C	-0.31 °C
COC[C@@H](C)N[C@H]1CC[C@H](Nc2cc(-c3cccc(NCC4(C#N)CCOCC4)n3)c(Cl)cn2)CC1	-1.02 °C	0.39 °C
Clc1ccccc1C(c1ccccc1)(c1ccccc1)n1ccnc1	-5.05 °C	0.47 °C
COc1ccc2c(O[C@@H]3C[C@H]4C(=O)N[C@]5(C(=O)NS(=O)(=O)C6(C)CC6)CC5/C=C\CCCCC[C@H](NC(=O)c5ccn(C)n5)C(=O)N4C3)cc(OC(C)C)nc2c1C (stereo not given in full)	-0.57 °C	0.93 °C
Cn1cc(-c2ccc(N(C(=O)NCc3ccccc3)[C@H]3CC[C@H](Nc4ccc(C#N)cn4)CC3)cc2)ccc1=O	-0.32 °C	1.75 °C
Cn1cc(NC(=O)c2ccc3nc4n(c3c2)CCCNC4=O)nc1C(=O)NC1CCCC1	-0.88 °C	1.76 °C
Cc1cc(SCc2sc(-c3ccc(C(F)(F)F)cc3)nc2C)ccc1OCC(=O)O	-1.59 °C	1.04 °C
O=C(Cc1ccccc1)Nc1nnc(N2CC[C@@H]3[C@H]2CN3c2cccnn2)s1	-0.69 °C	0.51 °C
Fc1ccc(Cl)cc1-c1nc(Nc2ccncc2)c2nccnc2n1	-0.76 °C	0.54 °C
COc1cc(C(=O)NC2CCN(C)CC2)ccc1Nc1ncc2c(n1)N(C1CCCC1)CC(F)(F)C(=O)N2C	1.14 °C	0.42 °C
COCCOCn1c(S(C)(=O)=O)nc2c1c(=O)n(C)c(=O)n2C	-2.72 °C	0.45 °C
CC(C)(C)OC(=O)CN(Cc1ccc(Cl)cc1)Cc1ccc([N+](=O)[O-])s1	-0.13 °C	0.88 °C

Structure (SMILES)	ΔTm [1]	ΔTm [2]
Cc1ccc2c(N)c(C(=O)NC3CCc4cc(N5CC6CCC(C5)N6)ccc4C3)sc2n1 (stereo not given)	-1.37 °C	0.55 °C
CCNC1=N[C@@H]2[C@@H](O)[C@H](O)[C@@H](CO)O[C@@H]2S1	0.02 °C	0.73 °C
NC(=O)OC[C@H](NC(=O)Cn1nc(-c2ccc(Cl)cc2)n(C[C@H](O)C(F)(F)F)c1=O)c1cccc(C(F)(F)F)c1	-3.24 °C	1.19 °C
COc1cc(-c2cc3ncccc3c(O[C@H](C)[C@H]3CNC(=O)C3)n2)cc(OC)c1OC	-2.14 °C and -1.33 °C	1.61 °C and 1.56 °C
CNC(=O)c1cc(C(=O)NC2CC2)cn(Cc2ccccc2)c1=O	-0.87 °C	0.5 °C
OC(c1ccc(-c2ccc(CN3CCN(Cc4ccncc4)CC3)cc2)c(F)c1)(C(F)(F)F)C(F)(F)F	-2.07 °C	0.64 °C
Cc1nccn1-c1ccc(Sc2cccc(C3(C(N)=O)CCOCC3)c2)cc1	-1.72 °C	0.44 °C
Cc1nn(-c2nc3ccc(Cl)c(Cl)c3[nH]2)c(O)c1C1OC(=O)c2ccccc21 (stereo not given)	-3.79 °C	0.7 °C
Cc1nc2c(cc1F)c(-c1nnc3c(n1)NC(=O)C3(C)C)nn2Cc1cccc(F)c1F	-2.09 °C	0.5 °C
COc1cc(C(=O)NCCOCCOCCOCC(=O)N[C@H](C(=O)N2C[C@H](O)C[C@H]2C(=O)NCc2ccc(-c3scnc3C)cc2)C(C)(C)C)ccc1Nc1ncc(C(F)(F)F)c(Oc2cccc3c2C(=O)CC3)n1	-0.82 °C	1.52 °C
COc1cccc(CNc2ccc(S(=O)(=O)Nc3nc4ccccc4s3)cc2)c1O	-0.69 °C	1.44 °C
COc1ccc(-c2cc3c(C)nc(N)nc3n([C@H]3CC[C@H](OCCO)CC3)c2=O)cn1	0.08 °C	0.24 °C
CC(C)c1cnc(NC(=O)Cc2ccccc2)s1	0.11 °C	0.87 °C
CN1C(=O)[C@@H](NC(=O)c2cc(Cc3ccccc3)on2)COc2ccccc21	-1.87 °C	-2.65 °C
CCS(=O)(=O)Nc1cccc(Oc2cncc(Nc3ccc(I)cc3F)c2C(N)=O)c1	-2.79 °C	1.17 °C
COc1cc(CN(CCN)C(=O)N[C@@H](C)c2ccccc2)ccc1OCc1ccccc1	-2.05 °C	0.47 °C
CN[C@@H](C)C(=O)N[C@H](C(=O)N1CCC[C@H]1C(=O)N[C@@H]1CCCc2ccccc21)C1CCCCC1	-1.87 °C	0.75 °C
C=CC(=O)N1CCC[C@@H](n2nc(-c3ccc(Oc4ccccc4)cc3)c3c(N)ncnc32)C1	-1.17 °C	-1.1 °C
Fc1cccc(-n2cnc3c(NCc4nc5c(F)c(F)ccc5[nH]4)nc(N4CCOCC4)nc32)c1	-0.08 °C	-0.16 °C
CN(C)C(=O)Cn1cc(-c2nc([C@@](C)(c3ccc(-c4cnc(N)nc4)cc3)C3CC3)no2)cn1	-1.93 °C	0.61 °C

Structure (SMILES)	ΔTm [1]	ΔTm [2]
CCN1CCN(Cc2ccc(C(=O)Nc3ccc(C)c(Oc4ccc5c(c4)CC(=O)N5)c3)cc2C(F)(F)F)CC1	-1.47 °C	3.22 °C
C=CC[C@@H]1/C=C(\C)C[C@H](C)C[C@H](OC)[C@H]2O[C@@](O)(C(=O)C(=O)N3CCCC[C@H]3C(=O)O[C@H](/C(C)=C/[C@@H]3CC[C@@H](O)[C@H](OC)C3)[C@H](C)[C@@H](O)CC1=O)[C@H](C)C[C@@H]2OC	-3.28 °C	0.4 °C
CCOC(=O)C1Cc2ccccc2CN1C(=O)c1ccc(SC)s1 (stereo not given)	-1.13 °C	0.41 °C
CCCCc1oc2ccccc2c1C(=O)c1cc(I)c(OCCN(CC)CC)c(I)c1	-1.31 °C	0.79 °C
CC1(C)CCN(C(=O)C2CN(c3c4c(nc5ccnn35)CCNCC4)C2)C1	-2.26 °C	0.72 °C
CNc1nc(Nc2ccc(C(=O)N3CCOCC3)cc2OC)ncc1Cl	-1.86 °C	0.95 °C
CC(C)N(CCCCOCC(=O)O)c1cnc(-c2ccccc2)c(-c2ccccc2)n1	-4.18 °C	-0.51 °C
C[C@@H]1CC(=O)N(C2CC2)N=C1c1ccc(NC(=O)N2Cc3ccncc3C2)cc1	-2.03 °C	0.58 °C
CCOP(=O)(OCC)C(=Cc1cc(C(C)(C)C)c(O)c(C(C)(C)C)c1)P(=O)(OCC)OCC	-1.65 °C	0.83 °C
COc1cc(N[C@@H]2CCCC[C@]2(O)C(F)(F)F)ccc1F	-1.55 °C	0.65 °C
CN(C)C(=O)c1sc2nc(N3CCC(S(C)(=O)=O)CC3)cc(C(F)(F)F)c2c1N	-2.57 °C and -1.49 °C	0.65 °C and 1.05 °C
CN1C(=O)Cc2ccc(-c3ccc(C[C@@H](C#N)NC(=O)[C@H]4N[C@@H]5CC[C@H]4C5)c(F)c3)cc21	0.36 °C	0.73 °C
CN(C)C(=O)Cn1cc(-c2nc(C3(c4ccc(-c5cnc(N)nc5)cc4)CC3)no2)cn1	-2.76 °C	0.55 °C
CCCCC[C@@](C)(O)/C=C/[C@H]1C(=O)CC(O)C1C/C=C\CCCC(=O)O (stereo not given in full)	-1.97 °C	0.37 °C
Cc1nc2ccccc2c(-c2ccc3c4c(ccnc24)CCO3)c1[C@H](OC(C)(C)C)C(=O)O	-2.17 °C	0.36 °C
CCN1C(=O)/C(=C(\NC2CCN(C)CC2)c2ccc3c(c2)OCO3)c2cc(C(C)=O)ccc21	-1.89 °C	1.13 °C
O=C(CCSCc1ccco1)NNC(=O)N1Cc2ccccc2Oc2ccc(Cl)cc21	-3.17 °C	0.24 °C
CCN(CC)C/C=C/C(=O)Nc1cc2c(Nc3ccc(F)c(Cl)c3)ncnc2cc1OCC1CC1	-0.42 °C	1.12 °C
NCCCc1c(C(=O)O)[nH]c2ccc(C(=O)Nc3ccccc3)cc12	-1.68 °C	0.79 °C
C=CC(=O)Nc1cccc(C(=O)Nc2ccc(Nc3cc(-c4c(-c5ccc(F)cc5)nc(SC)n4C)ccn3)cc2)c1	0.18 °C	-0.43 °C

— ChEMBL document CHEMBL5308504, “Tm Shift (DSF) assay results for EUbOPEN Chemogenomics Library” (2023)
